Laboratory results from patent US5348941A, “Stabilizers for fibroblast growth factors” (Merck & Co., Inc., priority 1992, dated 1994).

Assays:
acidic FGF (aFGF) = acidic FGF (aFGF) (Homo sapiens, UniProt P05230); test: biochemical; details: for stabilization of aFGF against heat-induced aggregation: 0.5X and 10X ligand, FIGS. 6-8; for Approx. Molar Ratio (ligand to aFGF at 50% inhibition of aggregation): Table 1
Description: Stabilization of aFGF can be determined by several independent methods including turbidity measurements, spectroscopic techniques, maintenance of protein mass, mitogenic activity and copper catalyzed oxidation. Since acidic fibroblast growth factor is unstable at physiological temperatures (undergoing large structural changes, including aggregation, which results in a loss of mitogenic and wound healing activity), human aFGF stability can be monitored by evaluating the turbidity of the pharmaceutical composition by following the kinetics of temperature induced aggregation of unfolded protein.
The kinetics of protein aggregation (stabilization) are monitored by the degree of light scattering at about OD350 nm using a Perkin Elmer Lambda 6 UV-visible spectrophotometer equipped with a six-cuvette holder. Temperature is controlled by circulating a water/ethylene glycol solution through the cell holder. About 0.9 ml of a PBS solution (6 mM sodium phosphate, 120 mM NaCl, pH 7.2) was placed into a cuvette and incubated at the appropriate temperature within the spectrophotometer. Once equilibrated, 100 μl of a 1 mg/ml aFGF solution containing the appropriate amount of ligand (stabilizer) is added to the cuvette and mixed manually by inversion. The change in optical density at 350 nm over time is continuously monitored. A dead time of 30s was present due to the mixing of the six samples in each experiment.
To examine the interactions between aFGF and heparin, a spectrophotometric turbidity assay was developed. This technique monitors the structural stability of aFGF by following the kinetics of temperature induced aggregation of unfolded protein by measurement of the degree of light scattering (turbidity) at 350 nm. The kinetics of protein aggregation were monitored by the degree of light scattering at 350 nm using a Perkin Elmer Lambda 6 UV-visible spectrophotometer equipped with a six-cuvette holder. Temperature was controlled by circulating a water/ethylene glycol solution through the cell holder. A PBS solution, 0.9 ml, (6 mM phosphate, 120 mM NaCl pH 7.2) was placed into a cuvette and incubated at the appropriate temperature within the spectrophotometer. Once equilibrated, 100 μl of a 1 mg/ml aFGF solution containing the appropriate amount of ligand was added to the cuvette and mixed manually by inversion. The change in optical density at 350 nm over time was continuously monitored. A dead time of 30s was present due to the mixing of the six samples in each experiment.
Samples contained 100 μg/ml aFGF in a PBS buffer at pH 7.2 with the indicated ratio of heparin to aFGF (wt:wt).
Samples contained 100 μg/ml protein in a PBS buffer, pH 7.2 with (a) no heparin, (b) 1.5 μg/ml, (c) 3 μg/ml, (d) 5 μg/ml, (e) 10 μg/ml and (f) 50 μg/ml heparin. Only representative data points are shown for clarity. […] Using the initial linear portion of the slope of turbidity vs. time plots as a measure of the rate of aggregation, the effect of polyanion concentration can be quantitatively characterized. The Y-axis represents the maximum rate of turbidity formation (ΔOD350 nm/min) normalized to sample (a) containing no heparin. The curve is drawn through data points for clarity only. The IC50 is the concentration of ligand at which the rate of aggregation is 50% of the control sample.

[1] = system: genetically diabetic C57GBL/Ks- db+/db^+ female mice; test: In vivo wound healing model (single 2 cm^2 full thickness wound); parameters: species or system mouse; details: with aFGF
Description: The in vivo animal wound healing model employs genetically diabetic c57GBL/Ks- db+/db+ female mice. The assay follows that described by Marsella et al., Wounds: A Compendium of Clinical Research and Practice, 2, (4) July/August 1990, p. 135-147, except that a single 2 cm^2 full thickness wound is used instead of the two 6 mm biopsy wounds described by Marsella. Another difference is that the wounds are covered with a polyurethane dressing. Addic FGF is applied to wounds on days 0, 3 and 7. Matching placebo formulations are used in a second group of animals. Dressings are changed every three to four days, at which time wound perimeters are traced for assessment of healing. Comparison of healing rate va. a placebo control is made and evaluated for statistical significance at the 90% healed stage.
Human aFGF as described above was combined with various stabilizers to evaluate wound healing activity of the stabilized aFGF. The in vivo animal wound healing model employs genetically diabetic C57GBL/Ks- db+/db^+ female mice (Jackson Laboratory). The assay follows that described by Marsella et. al., Wounds: A Compendium of Clinical Research and Practice, 2, (4) July/August 1990, p. […] Comparison of healing rate vs. a placebo control is made and evaluated for statistical significance at the 90% healed stage. […]

plasma = test: Anticoagulant activity: clotting time (PT / aPTT assay) relative to heparin; type: biochemical; details: equal weight of heparin, no aFGF present
Protocol: Clotting times are monitored by either a one-stage plasma prothrombin time assay (PT assay) or an activated partial thromboplastin time assay (aPTT) using an automated optical detection system (coag-a-Mate®-XC) by General Diagnostics. Clotting times are measured in the presence of varying amounts of heparin (0-50 μg heparin/ml plasma) to generate a standard curve and dotting times of other compounds (at equal wt. amounts) are obtained relative to these standardized values.
^(c) Anticoagulant activity is expressed as a fraction of activity
observed with an equal weight of heparin (+ less than 1/10; ++ 1/10 to
1/2; +++ heparin). No aFGF is present during these measurements.
The anticoagulant properties of heparin are well established, so it was of interest to determine the relative anticoagulant properties of the ligands of this study. The anticoagulant effect of these molecules was measured using a dotting time assay (see methods). Clotting times were monitored by either a one-stage plasma prothrombin time assay (PT assay) or an activated partial thromboplastin time assay (aPTT) using an automated optical detection system (coag-a-Mate*-XC) by General Diagnostics. […]

[2] = system: BALB/c 3T3 A31 fibroblasts; test: Fibroblast mitogenic assay ([3H]-thymidine incorporation into DNA); type: cell-based; details: presence of heparin
[3] = 40° C., 100 μg/ml aFGF, PBS pH 7.2

Sequence of acidic FGF (aFGF) (P05230 16-155 limits assumed): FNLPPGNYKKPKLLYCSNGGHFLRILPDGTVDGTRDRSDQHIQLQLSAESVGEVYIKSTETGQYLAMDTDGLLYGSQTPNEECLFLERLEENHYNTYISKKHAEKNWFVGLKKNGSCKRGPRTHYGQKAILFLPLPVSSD

Approx. Molar Ratio (ligand to aFGF at 50% inhibition of aggregation) (acidic FGF (aFGF); 40° C.)	heparin concentration down to which no detectable aggregation of aFGF was observed (acidic FGF (aFGF); 40° C., 100 μg/ml aFGF (1:10 weight ratio of heparin to aFGF))	IC50: concentration of ligand at which the rate of heat-induced aggregation of aFGF is 50% of the sample without ligand (acidic FGF (aFGF); [3])	Anticoagulant Activity of Ligand (% Heparin by Wt) (plasma)	Compound	number of ligand molecules per aFGF (molar ratio) required for stabilization (acidic FGF (aFGF); 40° C.)	IC50 (acidic FGF (aFGF); 40° C., 100 μg/ml aFGF, PBS pH 7.2, read-out: IC50: concentration of ligand at which the rate of heat-induced aggregation of aFGF is 50% of the sample without ligand (converted))	stabilization of aFGF against heat-induced aggregation (acidic FGF (aFGF); 40° C.)	wound healing efficacy [1]	aggregation of aFGF (acidic FGF (aFGF); 55° C., 25 minutes, 3-fold excess heparin by weight)	mitogenic activity of aFGF [2]
0.03	approximately 10 μg/ml	2 µg/mL	+ ++	heparin [reference compound]	substantially below one				no aggregation observed after 25 minutes at 55 °C	
1.2		3 µg/mL		O=P(O)(O)OP(=O)(O)OP(=O)(O)OP(=O)(O)O [Tetrapolyphosphate]	only one or a few ligands per aFGF molecule					showed activity when assayed in the presence of heparin
0.10		3 µg/mL		low molecular weight heparin [Low MW heparin, reference compound]			dramatically stabilize aFGF from heat-induced aggregation			
0.06		3 µg/mL		dextran sulfate	substantially below one		dramatically stabilize aFGF from heat-induced aggregation			
				sulfated β-cyclodextrin				as efficacious as heparin in stimulating		

Compound	Approx. Molar Ratio (ligand to aFGF at 50% inhibition of aggregation) (acidic FGF (aFGF); 40° C.)	heparin concentration down to which no detectable aggregation of aFGF was observed (acidic FGF (aFGF); 40° C., 100 μg/ml aFGF (1:10 weight ratio of heparin to aFGF))	IC50: concentration of ligand at which the rate of heat-induced aggregation of aFGF is 50% of the sample without ligand (acidic FGF (aFGF); [3])	Anticoagulant Activity of Ligand (% Heparin by Wt) (plasma)	number of ligand molecules per aFGF (molar ratio) required for stabilization (acidic FGF (aFGF); 40° C.)	IC50 (acidic FGF (aFGF); 40° C., 100 μg/ml aFGF, PBS pH 7.2, read-out: IC50: concentration of ligand at which the rate of heat-induced aggregation of aFGF is 50% of the sample without ligand (converted))	stabilization of aFGF against heat-induced aggregation (acidic FGF (aFGF); 40° C.)	wound healing efficacy [1]	aggregation of aFGF (acidic FGF (aFGF); 55° C., 25 minutes, 3-fold excess heparin by weight)	mitogenic activity of aFGF [2]
O=S(=O)(O)OC1C(OS(=O)(=O)O)C(OS(=O)(=O)O)C(OS(=O)(=O)O)C(OS(=O)(=O)O)C1OS(=O)(=O)O (centres unmarked) [Inositol hexasulfate, inositol hexasulfate]	0.6				only one or a few ligands per aFGF molecule	4.54 µM	stabilize aFGF against heat-induced aggregation	as efficacious as heparin in stimulating		
